Columns and labels:
[1] = tested on: hepatic encephalopathy; test: HE treatment of readmitted TIPS participant 11_a (case course); type: in vivo, human; conditions: for response to HE treatment: first readmission 9 days post-TIPS, lactulose and rifaximin given together
Source text: After the data were collected, the hospital courses of the two participants who were readmitted during the study period were examined. Participant 11_a (FIG. 6C) was a person with a history of cryptogenic cirrhosis with banded esophageal varices but with no prior history of HE. They underwent TIPS procedure due to progressively worsening ascites refractory to diuretic therapy and need for intermittent paracentesis. They were readmitted to the medical intensive care unit 9 days post-TIPS with obtundation requiring intubation for airway protection. Blood was drawn on the day of admission before initiation of hepatic encephalopathy treatment (pre-HET) (FIG. 6C). […] Blood was collected for analysis on the day after treatment initiation (post-HET) (FIG. 6C). They were discharged 9 days later. However, they were readmitted within 72 hours for altered mental status. […] Their encephalopathy resolved after continuous polyethylene glycol infusion via nasojejunal tube, but was again admitted 352 days post-TIPS for HE in the setting of urosepsis.

[2] = tested on: neuronal oxidative damage induced by bilirubin; conditions: supplementation with GUDCA; previous studies in animal models; cited from earlier work
[3] = biological target: T1, farnesoid X receptor (FXR) (Homo sapiens, UniProt Q96RI1); conditions: ligand-mediated nuclear receptor; literature ref 48; cited from earlier work
T1 sequence (Q96RI1 1-486): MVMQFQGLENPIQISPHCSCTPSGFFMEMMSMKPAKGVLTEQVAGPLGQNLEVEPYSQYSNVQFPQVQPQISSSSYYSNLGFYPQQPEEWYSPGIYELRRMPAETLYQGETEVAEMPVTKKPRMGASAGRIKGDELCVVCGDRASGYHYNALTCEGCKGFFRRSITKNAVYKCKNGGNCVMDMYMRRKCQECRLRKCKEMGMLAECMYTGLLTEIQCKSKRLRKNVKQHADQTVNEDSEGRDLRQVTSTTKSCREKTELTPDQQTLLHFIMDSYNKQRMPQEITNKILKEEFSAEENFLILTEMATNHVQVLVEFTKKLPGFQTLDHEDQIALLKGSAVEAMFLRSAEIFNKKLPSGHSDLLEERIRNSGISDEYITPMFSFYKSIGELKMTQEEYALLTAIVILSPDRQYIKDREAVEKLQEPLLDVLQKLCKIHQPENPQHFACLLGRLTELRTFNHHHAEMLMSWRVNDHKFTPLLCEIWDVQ

With `OC[C@H]1O[C@@H](O[C@@H]2[C@@H](CO)OC(O)(CO)[C@H]2O)[C@H](O)[C@@H](O)[C@H]1O` (mixture of isomers) [lactulose] the “response to HE treatment” value [1] was “responded well”.

For `C[C@H](CCC(=O)NCC(=O)O)[C@H]1CC[C@H]2[C@@H]3[C@@H](O)C[C@@H]4C[C@H](O)CC[C@]4(C)[C@H]3CC[C@]12C` [GUDCA, glycoursodeoxycholic acid], the “neuronal oxidative damage induced by bilirubin” value [2] is listed as “can be inhibited” and the “effect on farnesoid X receptor (FXR)” value [3] is listed as “directly inhibited”.

With `CO[C@H]1/C=C/O[C@@]2(C)Oc3c(C)c(O)c4c(O)c(c5c(nc6cc(C)ccn65)c4c3C2=O)NC(=O)/C(C)=C\C=C\[C@H](C)[C@H](O)[C@@H](C)[C@@H](O)[C@@H](C)[C@H](OC(C)=O)[C@@H]1C` [rifaximin] the “response to HE treatment” value [1] was “responded well”.

In the case of polyethylene glycol, the encephalopathy outcome ([1]; second readmission, continuous infusion via nasojejunal tube) is reported as “resolved”.
